# Tests used:
# [1] = target: Cyclin-dependent kinase 9 (Homo sapiens) (UniProt P50750); settings: dose 100.0 nM
# Description: Inhibition of CDK9 (unknown origin) using caliper substrate CTD3 at 100 nM by mobility shift assay relative to control
# [2] = target: Bromodomain-containing protein 4 (Homo sapiens, UniProt O60885); assay: Inhibition of BRD4 BD1 (unknown origin)
# [3] = test system: HCT-116; assay: Antiproliferative activity against human HCT-116 cells incubated for 48 hrs by 3H-thymidine uptake assay; format: functional, cell-based
# [4] = target: T1, Bromodomain-containing protein 2 (Homo sapiens, UniProt P25440); assay: Inhibition of BRD2 BD1 (unknown origin) incubated for 2 to 4 hrs under dark condition by FP assay
# [5] = target: T1, Bromodomain-containing protein 2; assay: Inhibition of BRD2 BD2 (unknown origin) incubated for 2 to 4 hrs under dark condition by FP assay
# Sequence of Cyclin-dependent kinase 9 (Homo sapiens) (P50750 whole entry): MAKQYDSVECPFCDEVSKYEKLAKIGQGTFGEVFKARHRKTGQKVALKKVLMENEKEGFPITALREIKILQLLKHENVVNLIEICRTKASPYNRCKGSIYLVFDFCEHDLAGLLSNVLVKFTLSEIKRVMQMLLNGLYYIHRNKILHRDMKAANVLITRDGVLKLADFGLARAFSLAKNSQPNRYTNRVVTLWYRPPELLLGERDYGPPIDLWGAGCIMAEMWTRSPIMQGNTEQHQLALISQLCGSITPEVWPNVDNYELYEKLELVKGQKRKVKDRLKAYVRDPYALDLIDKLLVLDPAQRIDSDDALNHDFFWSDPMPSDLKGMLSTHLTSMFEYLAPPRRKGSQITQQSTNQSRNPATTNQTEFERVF
# T1 sequence (P25440 whole entry): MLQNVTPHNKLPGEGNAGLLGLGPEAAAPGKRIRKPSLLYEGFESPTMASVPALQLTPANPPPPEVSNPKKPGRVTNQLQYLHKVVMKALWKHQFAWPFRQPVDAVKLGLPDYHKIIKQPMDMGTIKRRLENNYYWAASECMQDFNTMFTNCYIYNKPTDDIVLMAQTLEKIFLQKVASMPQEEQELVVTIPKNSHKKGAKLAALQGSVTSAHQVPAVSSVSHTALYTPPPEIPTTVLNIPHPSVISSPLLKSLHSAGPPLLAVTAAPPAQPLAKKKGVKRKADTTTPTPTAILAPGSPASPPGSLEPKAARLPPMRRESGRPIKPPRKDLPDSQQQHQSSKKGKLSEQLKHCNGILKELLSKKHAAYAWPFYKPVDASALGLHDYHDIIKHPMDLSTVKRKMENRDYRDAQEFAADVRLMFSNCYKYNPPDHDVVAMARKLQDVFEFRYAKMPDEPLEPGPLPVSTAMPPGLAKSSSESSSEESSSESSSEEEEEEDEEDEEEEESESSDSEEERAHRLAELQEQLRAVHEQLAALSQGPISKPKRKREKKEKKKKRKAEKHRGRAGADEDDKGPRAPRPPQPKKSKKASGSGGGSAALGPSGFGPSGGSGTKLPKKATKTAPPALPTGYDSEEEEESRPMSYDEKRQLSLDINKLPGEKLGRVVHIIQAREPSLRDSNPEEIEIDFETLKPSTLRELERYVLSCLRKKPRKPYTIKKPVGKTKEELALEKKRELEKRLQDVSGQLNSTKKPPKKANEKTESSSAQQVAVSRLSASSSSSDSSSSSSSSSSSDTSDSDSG
SMILES,inhibition [1] [%],also measured
Cc1n[nH]cc1-c1ccnc(Nc2ccc3c(c2)N(C(C)C)[C@H](C)C(=O)N3C)n1,53,
Cc1c(-c2ccnc(Nc3ccc4c(c3)N(C(C)C)[C@H](C)C(=O)N4C)n2)c(C2CC2)nn1C,6.5,
CC(C)N1c2cc(Nc3nccc(-c4c[nH]nc4C4CCCC4)n3)ccc2N(C)C(=O)[C@H]1C,62,
CC(C)c1n[nH]cc1-c1ccnc(Nc2ccc3c(c2)N(C(C)C)[C@H](C)C(=O)N3C)n1,69,
Cc1cc(Nc2ccnc(Nc3ccc4c(c3)N(C(C)C)[C@H](C)C(=O)N4C)n2)n(-c2ccccc2)n1,5.3,
Cc1cnc(Nc2ccc3c(c2)N(C(C)C)[C@H](C)C(=O)N3C)nc1-c1c(C2CC2)nn(C)c1C,0,
Cc1c(-c2ccnc(Nc3ccc4c(c3)N(C3CCCC3)[C@H](C)C(=O)N4C)n2)c(C2CC2)nn1C,4.6,
Cc1nn(C(C)C)cc1-c1ccnc(Nc2ccc3c(c2)N(C(C)C)[C@H](C)C(=O)N3C)n1,2.5,
CC(C)N1c2cc(Nc3nccc(-c4ccccc4)n3)ccc2N(C)C(=O)C1C (stereo not drawn),,IC50 [2]: 193 nM
CC(C)N1c2cc(Nc3nccc(Nc4cc(-c5ccccc5)nn4C)n3)ccc2N(C)C(=O)[C@H]1C,-1.5,
CC[C@@H]1C(=O)N(C)c2ccc(Nc3ncc(F)c(-c4c(C5CCCC5)nn(C)c4C)n3)cc2N1C(C)C,10,
CC(C)N1c2cc(Nc3nccc(-c4ccnn4C)n3)ccc2N(C)C(=O)[C@H]1C,-1.3,
Cc1nn(C)cc1-c1ccnc(Nc2ccc3c(c2)N(C(C)C)[C@H](C)C(=O)N3C)n1,3.2,
Cc1nn(-c2ccccc2)cc1-c1ccnc(Nc2ccc3c(c2)N(C(C)C)[C@H](C)C(=O)N3C)n1,0.9,
Cc1cc(Nc2ccnc(Nc3ccc4c(c3)N(C(C)C)[C@H](C)C(=O)N4C)n2)n(C)n1,-0.3,
Cc1c(-c2nc(Nc3ccc4c(c3)N(C(C)C)[C@H](C)C(=O)N4C)ncc2F)c(C2CCC2)nn1C,18,
CC(C)N1c2cc(Nc3nccc(-c4ccnn4C(C)C)n3)ccc2N(C)C(=O)[C@H]1C,14,
CC(C)N1c2cc(Nc3nccc(-c4c[nH]nc4-c4ccccc4)n3)ccc2N(C)C(=O)[C@H]1C,23,
Cc1n[nH]c(C)c1-c1ccnc(Nc2ccc3c(c2)N(C(C)C)[C@H](C)C(=O)N3C)n1,5.8,
CC(C)N1c2cc(Nc3nccc(Nc4cc(C(C)(C)C)nn4C)n3)ccc2N(C)C(=O)[C@H]1C,0,
CC(C)N1c2cc(Nc3nccc(-c4cc[nH]n4)n3)ccc2N(C)C(=O)[C@H]1C,5.4,
CCn1cc(-c2ccnc(Nc3ccc4c(c3)N(C(C)C)[C@H](C)C(=O)N4C)n2)c(C)n1,9.4,
Cc1c(-c2ccnc(Nc3ccc4c(n3)N(C(C)C)[C@H](C)C(=O)N4C)n2)c(C2CC2)nn1C,0.8,

SMILES,inhibition [1] [%],also measured
Cc1c(-c2ccnc(Nc3ccc4c(c3)N(C(C)C)[C@H](C)C(=O)N4C)n2)cnn1C,25,
Cc1n[nH]c(C2CC2)c1-c1ccnc(Nc2ccc3c(c2)N(C(C)C)[C@H](C)C(=O)N3C)n1,12,
Cc1c(-c2nc(Nc3ccc4c(c3)N(C(C)C)[C@H](C)C(=O)N4C)ncc2F)c(C2CCCC2)nn1C,8.2,
CC[C@@H]1C(=O)N(C)c2ccc(Nc3ncc(F)c(-c4c(C5CC5)nn(C)c4C)n3)cc2N1C(C)C,19,
CC[C@@H]1C(=O)N(C)c2ccc(Nc3nccc(-c4c(C5CC5)nn(C)c4C)n3)cc2N1C(C)C,2.7,
Cc1cc(Nc2ccnc(Nc3ccc4c(c3)N(C(C)C)[C@H](C)C(=O)N4C)n2)n(C(C)C)n1,0.5,
CCn1nccc1-c1ccnc(Nc2ccc3c(c2)N(C(C)C)[C@H](C)C(=O)N3C)n1,4.7,
Cc1cc(Nc2ccnc(Nc3ccc4c(c3)N(C(C)C)[C@H](C)C(=O)N4C)n2)n(C(C)(C)C)n1,-1.5,
Cc1c(-c2nc(Nc3ccc4c(c3)N(C(C)C)[C@H](C)C(=O)N4C)ncc2Cl)c(C2CC2)nn1C,23,
CCc1n[nH]c(C2CC2)c1-c1ccnc(Nc2ccc3c(c2)N(C(C)C)[C@H](C)C(=O)N3C)n1,5.9,
CC(C)N1c2cc(Nc3nccc(-c4cn[nH]c4)n3)ccc2N(C)C(=O)[C@H]1C,73,
Cc1c(-c2ccnc(Nc3cc(F)c4c(c3)N(C(C)C)[C@H](C)C(=O)N4C)n2)c(C2CC2)nn1C,-0.9,
Cc1sc2c(c1C)C(c1ccc(Cl)cc1)=N[C@@H](CC(=O)OC(C)(C)C)c1nnc(C)n1-2,,IC50 [3]: 6150 nM
Cc1c(-c2nc(Nc3ccc4c(c3)N(C(C)C)[C@H](C)C(=O)N4C)ncc2F)c(C2CC2)nn1C,15,IC50 [4]: 35 nM; IC50 [5]: 48 nM
CC(C)N1c2cc(Nc3nccc(Nc4cc(C5CC5)nn4C)n3)ccc2N(C)C(=O)[C@H]1C,3.8,
Cc1c(-c2ccnc(Nc3ccc4c(c3)N(C3CCC3)[C@H](C)C(=O)N4C)n2)c(C2CC2)nn1C,9.1,
Cc1n[nH]c(C2CCC2)c1-c1ccnc(Nc2ccc3c(c2)N(C(C)C)[C@H](C)C(=O)N3C)n1,5.9,
Cc1cc(-c2ccnc(Nc3ccc4c(c3)N(C(C)C)[C@H](C)C(=O)N4C)n2)n(C)n1,-0.4,
CC(C)N1c2cc(Nc3nccc(-c4ccn(C)n4)n3)ccc2N(C)C(=O)[C@H]1C,-1.4,
CC[C@@H]1C(=O)N(C)c2ccc(Nc3ncc(F)c(-c4c(C5CCC5)nn(C)c4C)n3)cc2N1C(C)C,10,
Cc1nn(C)c(C2CC2)c1-c1ccnc(Nc2ccc3c(c2)N(C(C)C)[C@H](C)C(=O)N3C)n1,3.4,
CC(C)N1c2cc(Nc3nccc(Nc4cc(C(C)(C)C)n[nH]4)n3)ccc2N(C)C(=O)[C@H]1C,45,
CC(C)N1c2cc(Nc3nccc(-c4c[nH]nc4C4CCCCC4)n3)ccc2N(C)C(=O)[C@H]1C,56,
